Assay results reported in US5602156A, “Method for inhibiting metalloproteinase expression” (The United States of America as represented by the …, priority 1994, dated 1997).
“Also recorded” adds a separate entry of the source.

Key:
[1] = test system: gelatinase activity of the metalloproteinases; test: Zymogram slices incubated with compound 1 or calcium chelators in the activating buffer (direct inhibition of enzyme); format: biochemical, human; settings: 10 mM chelator in incubation buffer; data not shown
Description: See, Felder, et al., J. Pharm. Exp. Therapeut. 257:967-971 (1991) and unpublished observations by the inventors.
Gelatin zymography was carded out using control conditioned media from A2058 cells and HT1080 cells in the absence of compound 1. Zymogram slices were incubated in low salt collagenase buffer with control (DMSO 0.1%), an inhibitory dose of compound 1 (20 μM), or the calcium chelators EGTA (10 mM) and EDTA (10 mM). […] See, Brown, et al., Cancer Res. 50:6184-6191 (1990). […] Lane 1 for each of the zymograms corresponds to A2058 while lane 2 corresponds to HT1080.

[2] = test system: gelatinase activity of the metalloproteinases; settings: EDTA in incubation buffer; shown by others; cited from earlier work
MMP-2 [3] = test: Gelatin zymography of conditioned media from human cancer cell lines (gelatinase activity); format: cell-based
Description: (§1) Conditioned media for zymogram and Western blot analysis were produced under serum-free conditions. Cells (2 million) were plated in 25 cm^2 flasks in serum-containing medium and cultured overnight. Serum-containingmedium was removed and the cell monolayers were washed twice with DMEM/ITS (DMEM containing insulin (5 μg/mL), transferrin (5 μg/mL), and selenium (5 ng/mL)). The resultant cells were fed with 3 mL of DMEM/ITS and additives as described in the Examples for two 24 hour periods. Conditioned media samples were collected at 24 hours and cells were refed with fresh DMEM/ITS containing the described additives for an additional 24 hours. Conditioned media samples were centrifuged to remove cells and debris then frozen at -20° C. until use. Freeze and thaw cycles of the conditioned media were limited to no more than two.
Quantitation of the effect was evaluated by laser densitometry of the resultant zymograms.
Aliquots of conditioned medium (15 μL) were electrophoresed on gelatin-containing 10% PAGE gels under nonreducing but denaturing conditions. These conditions allow the different gelatin-degrading species (MMPs) to separate by size. […] Bands of clearing, seen after Coomassie blue staining correspond to areas of gelatinase activity.
OVCAR3 conditioned media samples were concentrated 10-fold prior to zymography.
Known concentrated conditioned medium from HT1080 cells was used for identification of the gelatinase species as marked in FIG. 1A: 92 kDa, gelatinase B/MMP-9; 72 kDa, gelatinase A/MMP-2 latent form; 65 kDa intermediate and 62 kDa activated forms of MMP-2. The activated form of MMP-2 results from cleavage of the amino terminal domain.
Lane 1 corresponds to cells treated only with 0.05% DMSO as a control.
Quantitation of the zymograms in FIGS. 1A-1C were carded out using laser densitometry.
The effect of structural analogs on the gelatinase activity of A2058 cells was similarly evaluated.

phospholipase C-γ = settings: cited from earlier work
arachidonic acid release = settings: cited from earlier work
[4] = test system: receptor-operated and voltage-gated calcium influx; settings: cited from earlier work
gelatinase activity = test: Gelatin zymography of A2058 and HT1080 cells, compound 1 with or without TGF-β1 (results in words); format: cell-based, human; settings: TGF-β1 (5 ng/mL) alone for 48 hr
Description: (§2) A2058 and HT1080 cells were incubated with compound 1 (2 μM), with or without TGF-β1 (5 ng/mL) for 24 and 48 hours prior to harvest of conditioned media. Aliquots were subjected to gelatin zymography as described in Example 1. Known concentrated conditioned medium from HT1080 cells was used for identification of the gelatinase species (92 kDa, gelatinase B/MMP-9; 72 kDa, gelatinase A/MMP-2 latent form; 65 kDa intermediate and 62 kDa activated forms of MMP-2).
(§3) Lane 1 is the control resulting from treatment of the cells with 0.1% DMSO. Lanes 2 and 3 correspond to those cells which are treated with 2 μM compound 1 in the absence of TGF-β1 for 24 and 48 hours, respectively. Lane 4 corresponds to cells which have been treated with TGF-β1 in the absence of compound 1. Lane 5 corresponds to cells which have been treated with TGF-β1 for 48 hours with compound 1 being added to the incubation mixture for the final 24 hours. Lane 6 corresponds to cells which have been treated for 48 hours with both TGF-β1 and compound 1.

MMP-2 [5] = test: Gelatin zymography of HT1080 cells, compound 1 with or without TGF-β1 (densitometry); format: cell-based, human; settings: TGF-β alone (0 hr compound 1), control band = 100%
Description: as §1
(§4) A2058 human melanoma cells, human HT1080 fibrosarcoma cells, and OVCAR3 human ovarian cancer cells were incubated with increasing concentrations of compound 1 (0.2-20 μM) or DMSO control (0.05%) and subjected to gelatin zymography. Aliquots of conditioned medium (15 μL) were electrophoresed on gelatin-containing 10% PAGE gels under nonreducing but denaturing conditions. These conditions allow the different gelatin-degrading species (MMPs) to separate by size. The enzymes renature after removal of the SDS by incubation of the gel with 2.5 % Triton X-100, and degrade the gelatin substrate present in the polyacrylamide gel upon overnight incubation in low salt collagenase buffer. Bands of clearing, seen after Coomassie blue staining correspond to areas of gelatinase activity.
as §2, §3
(§5) *The control band was defined as 100% gelatinase activity and the other
(§6) bands were normalized to it. Numbers reflect triplicate measurements from
(§7) each zymogram band of representative zymograms. Standard deviations, not

MMP-9 = test: Gelatin zymography of HT1080 cells, compound 1 with or without TGF-β1 (densitometry), 92 kDa; format: cell-based, human; settings: TGF-β alone (0 hr compound 1), control band = 100%
Description: as §1, §4, §2, §3, §5, §6, §7

MMP-2 [6] = settings: cited from earlier work; for MMP-2 induction/inhibition: human melanoma and fibrosarcoma cells
[7] = test system: interstitial collagenase, MMP-1; settings: human melanoma and fibrosarcoma cells; cited from earlier work
MMP-2 [8] = test: Gelatin zymography of A2058 cells, compound 1 with or without TGF-β1 (densitometry); format: cell-based, human; settings: TGF-β1 alone (0 hr compound 1), control band = 100%
Description: as §1, §4, §2, §3, §5, §6, §7

O=C(O)CN(CCOCCOCCN(CC(=O)O)CC(=O)O)CC(=O)O [EGTA, ethylenebis(oxyethylenenitrilo)tetraacetic acid, reference compound]
requirement for metal ion in the activation buffer [1]: confirmed the requirement for metal ion (Ca^++) in the activation buffer

O=C(O)CN(CCN(CC(=O)O)CC(=O)O)CC(=O)O [EDTA, ethylenediamine tetraacetic acid, reference compound]
inhibition of gelatinolytic activity [2]: inhibit gelatinolytic activity | requirement for metal ion in the activation buffer [1]: confirmed the requirement for metal ion (Ca^++) in the activation buffer

COc1ccc(CCCOC(Cn2ccnc2)c2ccc(OC)cc2)cc1 (stereo not shown) [Compound 2, reference compound]
MMP-2 activity (MMP-2 [3]; A2058, 10 μM (FIG. 1E)): reduced MMP-2 activity | inhibition of MMP-2 gelatinase activity (FIG. 1) (MMP-2 [3]; zymograms of FIG. 1): inhibition | tyrosine phosphorylation with activation of phospholipase C-γ (phospholipase C-γ): inhibited | arachidonic acid release (arachidonic acid release): inhibited | calcium influx inhibition [4]: inhibited; also recorded: effective inhibitor of receptor-operated calcium channels with reactivity against some voltage-gated calcium channels

TGF-β1: transforming growth factor-β1
gelatinase activity (gelatinase activity): increased gelatinase activity | gelatinase activity, 65 + 62 kDa (MMP-2 [5]): 192% | gelatinase activity, 72 kDa (MMP-2 [5]): 47% | gelatinase activity, 92 kDa (MMP-9): 64% | production of MMP-2 by stimulation of RNA expression (MMP-2 [6]; cell type not stated): stimulate production of MMP-2 by stimulation of RNA expression | MMP-2 induction/inhibition (MMP-2 [6]): induction of MMP-2 | MMP-1 induction/inhibition [7]: inhibition of the interstitial collagenase, MMP-1 | gelatinase activity, 65 + 62 kDa (MMP-2 [8]): 0% | gelatinase activity, 72 kDa (MMP-2 [8]): 68%

CCCCCCCCCCCCCC(=O)OC1C(C)C2(O)C(C=C(CO)CC3(O)C(=O)C(C)=CC32)C2C(C)(C)C12OC(C)=O (stereo not shown) [TPA, 12-O-tetradecanoylphorbol-13-acetate, reference compound]
MMP-2 induction/inhibition (MMP-2 [6]): inhibition of MMP-2 | MMP-1 induction/inhibition [7]: induction of MMP-1
